One test has as its system ZR-75-1 (PTEN loss). Description: Tumor cell proliferation, CCK8 method, ZR-75-1. Type of test: cell-based. The note with it: Homo sapiens; CCK8, ZR-75-1. As to the method: (§1) The IC50 value was calculated using Graphpad Prism V5.0 software.
A general note: Tetrazolium assays rely on reduction of a dye to a coloured formazan, in cell work by metabolically active cells.

The target of a further test is T1, PI3Kδ (Homo sapiens, UniProt O00329).
T1 construct: purchased Carna Bioscience
T1 sequence (O00329 whole entry): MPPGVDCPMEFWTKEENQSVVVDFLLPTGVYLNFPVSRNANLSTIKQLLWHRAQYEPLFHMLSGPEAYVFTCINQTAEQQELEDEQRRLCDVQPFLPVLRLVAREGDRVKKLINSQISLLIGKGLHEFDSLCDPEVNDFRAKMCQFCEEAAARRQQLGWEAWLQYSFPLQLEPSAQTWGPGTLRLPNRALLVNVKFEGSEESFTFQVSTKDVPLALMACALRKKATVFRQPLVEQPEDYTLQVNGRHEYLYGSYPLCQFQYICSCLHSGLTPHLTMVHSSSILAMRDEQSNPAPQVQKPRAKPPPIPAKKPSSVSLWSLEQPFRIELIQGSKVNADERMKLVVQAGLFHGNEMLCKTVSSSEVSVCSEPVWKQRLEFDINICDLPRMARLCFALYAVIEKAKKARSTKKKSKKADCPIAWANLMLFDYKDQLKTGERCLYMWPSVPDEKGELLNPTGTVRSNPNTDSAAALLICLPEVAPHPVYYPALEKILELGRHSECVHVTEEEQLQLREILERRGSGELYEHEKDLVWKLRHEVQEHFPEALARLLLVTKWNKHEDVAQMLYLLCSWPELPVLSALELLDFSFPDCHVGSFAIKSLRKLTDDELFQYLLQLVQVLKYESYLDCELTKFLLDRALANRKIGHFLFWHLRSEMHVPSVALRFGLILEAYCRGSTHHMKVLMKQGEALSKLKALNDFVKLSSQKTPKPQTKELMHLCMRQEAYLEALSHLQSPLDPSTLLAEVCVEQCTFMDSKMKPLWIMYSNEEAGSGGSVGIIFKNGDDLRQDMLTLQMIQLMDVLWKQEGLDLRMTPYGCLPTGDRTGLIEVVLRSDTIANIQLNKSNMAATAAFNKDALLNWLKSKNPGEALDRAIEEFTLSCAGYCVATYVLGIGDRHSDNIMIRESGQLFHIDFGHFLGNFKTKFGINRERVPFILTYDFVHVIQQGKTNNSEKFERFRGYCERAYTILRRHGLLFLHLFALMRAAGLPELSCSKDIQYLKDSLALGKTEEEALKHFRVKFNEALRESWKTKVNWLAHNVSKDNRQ
T1 sequence (P27986 whole entry partner): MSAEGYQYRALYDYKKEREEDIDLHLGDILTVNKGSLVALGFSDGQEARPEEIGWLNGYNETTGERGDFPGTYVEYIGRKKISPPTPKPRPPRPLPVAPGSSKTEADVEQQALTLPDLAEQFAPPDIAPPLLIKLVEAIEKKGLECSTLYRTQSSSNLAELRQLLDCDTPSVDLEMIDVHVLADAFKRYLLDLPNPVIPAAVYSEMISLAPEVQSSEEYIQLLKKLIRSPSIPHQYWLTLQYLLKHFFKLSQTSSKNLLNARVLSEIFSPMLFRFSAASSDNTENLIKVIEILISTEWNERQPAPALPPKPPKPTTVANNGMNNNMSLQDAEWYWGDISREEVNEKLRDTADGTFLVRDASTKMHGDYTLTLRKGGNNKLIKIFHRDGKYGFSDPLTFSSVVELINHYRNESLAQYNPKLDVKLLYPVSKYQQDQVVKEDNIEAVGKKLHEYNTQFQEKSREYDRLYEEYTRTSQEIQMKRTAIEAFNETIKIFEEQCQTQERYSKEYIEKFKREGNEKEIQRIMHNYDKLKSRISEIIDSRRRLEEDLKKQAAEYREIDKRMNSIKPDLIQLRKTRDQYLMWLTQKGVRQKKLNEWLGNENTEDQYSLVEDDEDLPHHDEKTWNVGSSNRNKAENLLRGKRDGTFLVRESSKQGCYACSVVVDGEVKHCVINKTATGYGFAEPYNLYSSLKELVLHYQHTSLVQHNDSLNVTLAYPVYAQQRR
Description: PI3Kδ molecular activity test (ADP-GLO). It counts as biochemical. Particulars: recombinant protein. On the procedure: (§2) Instrument: ELISA Reader Envision™ (PerkinElmer, USA)
(§3) Materials: Human recombinant PI3K and PI3Kδ proteins, purchased from Carna Bioscience; ADP-GLO kit, purchased from Promega.
(§4) Take the PI3Kα Molecular Activity Test as an Example to Describe the Text Method of the PI3K Subtypes
(§5) PI3K-α recombinant protein and substrate ATP were diluted with kinase reaction buffer (50 mM Tris-HCl, pH 7.4, 2.1 mM DTT, 0.05% Tween-20, 10 mM MgCl2). […] The specific reaction system was 2% of DMSO, 0.8 ng/μL PI3K-α, and 100 μM ATP, the positive compound control groups and control wells were set, and there were 3 multiple-wells for each concentration of each sample. After incubating for 2 hours at room temperature, ADP-GLO Reagent and Kinase Detection Reagent were added respectively, and then Envision™ was used to detect the […] readings. The activity rate of the samples were calculated by the sample readings, and the calculation formula was: activity rate=(ODcompound−ODcontrol)/(ODDMSO−ODcontro) ×100%.
A general note: ADP-Glo turns the ADP formed in a reaction into a luminescent signal.

The next test deals with MCF7 (PIK3CA mut). Description: Tumor cell proliferation, CCK8 method, MCF7. Particulars: Homo sapiens; CCK8, MCF7; read-out: MCF7 (PIK3CA mut) proliferation IC50. Type of test: cell-based, human. As to the method:
as §1

The test system of another test is SW48 (PIK3CA mut). Put plainly: Tumor cell proliferation, CCK8 method, SW48. Type of test: cell-based. The note with it: Homo sapiens; CCK8, SW48; read-out: SW48 (PIK3CA mut) proliferation IC50. On the procedure:
as §1

Another test concerns KPL4 (PIK3CA mut). Description: Tumor cell proliferation, CCK8 method, KPL4. The note with it: CCK8, KPL4; read-out: KPL4 (PIK3CA mut) proliferation IC50. It counts as cell-based. On the procedure: as §1
Another test has as its target T2, PI3Kα (Homo sapiens, UniProt P42336).
T2 construct: purchased Carna Bioscience
Put plainly: PI3Kα molecular activity test (ADP-GLO). It counts as biochemical. Particulars: for Selectivity (PI3Kδ IC50/PI3KαIC50): PI3Kδ IC50/PI3Kα IC50; for IC50: recombinant protein, 100 μM ATP, 2 hours at room temperature. As to the method: as §2, §3, §4, §5

T2 sequence (P42336 whole entry): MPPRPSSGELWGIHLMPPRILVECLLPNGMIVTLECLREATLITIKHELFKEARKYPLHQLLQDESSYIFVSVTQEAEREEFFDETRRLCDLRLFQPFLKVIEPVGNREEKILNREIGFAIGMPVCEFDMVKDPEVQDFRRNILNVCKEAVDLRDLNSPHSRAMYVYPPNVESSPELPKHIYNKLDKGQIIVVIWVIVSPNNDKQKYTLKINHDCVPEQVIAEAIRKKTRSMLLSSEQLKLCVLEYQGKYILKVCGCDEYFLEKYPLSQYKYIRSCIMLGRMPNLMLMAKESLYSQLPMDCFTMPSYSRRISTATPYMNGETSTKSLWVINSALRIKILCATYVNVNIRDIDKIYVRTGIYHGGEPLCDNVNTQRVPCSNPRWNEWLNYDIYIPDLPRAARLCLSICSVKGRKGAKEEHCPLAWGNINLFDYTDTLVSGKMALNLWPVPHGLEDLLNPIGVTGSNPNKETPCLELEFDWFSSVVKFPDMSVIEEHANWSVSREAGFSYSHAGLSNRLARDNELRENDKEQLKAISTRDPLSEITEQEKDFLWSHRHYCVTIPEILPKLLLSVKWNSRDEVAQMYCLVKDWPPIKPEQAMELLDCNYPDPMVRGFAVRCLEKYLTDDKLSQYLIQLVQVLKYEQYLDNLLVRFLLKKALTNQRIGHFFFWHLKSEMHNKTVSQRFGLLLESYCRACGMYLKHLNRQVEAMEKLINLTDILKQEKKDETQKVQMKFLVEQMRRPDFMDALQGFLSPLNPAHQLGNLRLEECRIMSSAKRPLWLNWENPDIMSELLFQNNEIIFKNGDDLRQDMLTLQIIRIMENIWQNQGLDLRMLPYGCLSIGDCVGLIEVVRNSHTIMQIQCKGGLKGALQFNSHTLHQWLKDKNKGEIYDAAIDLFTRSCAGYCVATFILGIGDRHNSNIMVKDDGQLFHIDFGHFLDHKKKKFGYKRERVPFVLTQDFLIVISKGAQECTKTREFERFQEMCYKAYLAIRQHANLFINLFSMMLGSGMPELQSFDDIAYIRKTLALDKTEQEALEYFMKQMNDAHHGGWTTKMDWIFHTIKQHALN
T2 sequence (P27986 whole entry partner): as the sequence (P27986 whole entry partner) above

Turning to `CCn1c(NC(=O)c2cnc(N)nc2)cc2c3c(ccc2c1=O)OCCOCCOCCO3` [14b′-6], the IC50 in the test with ZR-75-1 (PTEN loss) was 20 to 200 nM; on PI3Kδ it was under 20 nM; with MCF7 (PIK3CA mut) it was under 20 nM; in the test with SW48 (PIK3CA mut), 20 to 200 nM; in the test on KPL4 (PIK3CA mut), 20 to 200 nM; at PI3Kα, under 20 nM. Besides, at PI3Kα, the “Selectivity (PI3Kδ IC50/PI3KαIC50)” value is given as “I (“I” represents <5 times)”.
For `CCn1c(NC(=O)c2cnc(N)nc2)cc2c(OC)c(OCCCN3CCOCC3)ccc2c1=O` [8b′-1], the IC50 was 20 to 200 nM in the test with ZR-75-1 (PTEN loss); under 20 nM on PI3Kδ; under 20 nM with MCF7 (PIK3CA mut); 20 to 200 nM with SW48 (PIK3CA mut); 20 to 200 nM in the test on KPL4 (PIK3CA mut); under 20 nM at PI3Kα. The “Selectivity (PI3Kδ IC50/PI3KαIC50)” value at PI3Kα was “I (“I” represents <5 times)”.
As to `Cn1c(NC(=O)c2cnc(N)nc2)nc2c3c(ccc2c1=O)OCCCCCCCCO3` [14a-8], the IC50 with ZR-75-1 (PTEN loss) was 20 to 200 nM; at PI3Kδ, under 20 nM; with MCF7 (PIK3CA mut), under 20 nM; in the test on SW48 (PIK3CA mut) it was 20 to 200 nM; in the test on KPL4 (PIK3CA mut), 20 to 200 nM; at PI3Kα it was under 20 nM. On PI3Kα, the “Selectivity (PI3Kδ IC50/PI3KαIC50)” value is on record as “I (“I” represents <5 times)”.
In the case of `COc1c(OCCNS(C)(=O)=O)ccc2c(=O)n(C)c(NC(=O)c3ccc(N)nc3)nc12` [8a-40, 6-amino-N-(8-methoxy-3-methyl-7-(2-(methylsulfonamido)ethoxy)-4-oxo-3,4-dihydroquinazoline-2-yl) nicotinamide], the IC50 in the test with ZR-75-1 (PTEN loss) is 200 to 1000 nM; on PI3Kδ, 20 to 200 nM; in the test with MCF7 (PIK3CA mut), under 20 nM; with SW48 (PIK3CA mut), 20 to 200 nM; in the test on KPL4 (PIK3CA mut), 20 to 200 nM; on PI3Kα, under 20 nM. Moreover, at PI3Kα, the “Selectivity (PI3Kδ IC50/PI3KαIC50)” value was “II (“II” represents 5-10 times)”.
`COc1c(OC[C@@H](O)CN2CCOCC2)ccc2c(=O)n(C)c(NC(=O)c3ccc(N)nc3)nc12` [8a-38, (S)-6-amino-N-(7-(2-hydroxy-3-morpholinopropoxy)-8-methoxy-3-methyl-4-oxo-3,4-dihydroouinazolin-2-yl) nicotinamide]: the IC50 in the test on ZR-75-1 (PTEN loss) was 200 to 1000 nM; on PI3Kδ, 20 to 200 nM; in the test with MCF7 (PIK3CA mut), under 20 nM; in the test on SW48 (PIK3CA mut), 20 to 200 nM; with KPL4 (PIK3CA mut), 20 to 200 nM; at PI3Kα it was under 20 nM. On PI3Kα, the “Selectivity (PI3Kδ IC50/PI3KαIC50)” value is “II (“II” represents 5-10 times)”.
As for `COc1c(OC[C@H](O)CN2CCOCC2)ccc2c(=O)n(C)c(NC(=O)c3ccc(N)nc3)nc12` [8a-39, (R)-6-amino-N-(7-(2-hydroxy-3-morpholinopropoxy)-8-methoxy-3-methyl-4-oxo-3,4-dihydroquinazolin-2-yl) nicotinamide], the IC50 with ZR-75-1 (PTEN loss) is 200 to 1000 nM; on PI3Kδ, 20 to 200 nM; in the test with MCF7 (PIK3CA mut) it was under 20 nM; in the test with SW48 (PIK3CA mut), 20 to 200 nM; in the test with KPL4 (PIK3CA mut), 20 to 200 nM; on PI3Kα, under 20 nM. For the same compound, on PI3Kα, the “Selectivity (PI3Kδ IC50/PI3KαIC50)” value is listed as “II (“II” represents 5-10 times)”.
Regarding `Cn1c(NC(=O)c2cnc(N)nc2)nc2c3c(ccc2c1=O)OCCCCCCCO3` [14a-7], the IC50 in the test with ZR-75-1 (PTEN loss) is 200 to 1000 nM; on PI3Kδ, 20 to 200 nM; in the test with MCF7 (PIK3CA mut) it was 20 to 200 nM; in the test on SW48 (PIK3CA mut) it was 200 to 1000 nM; in the test on KPL4 (PIK3CA mut), 200 to 1000 nM; at PI3Kα, under 20 nM. Also, on PI3Kα, the “Selectivity (PI3Kδ IC50/PI3KαIC50)” value is “II (“II” represents 5-10 times)”.
As for `CCn1c(NC(=O)c2cnc(N)nc2)nc2c(OC)c(OCCNS(C)(=O)=O)ccc2c1=O` [8b-29, 2-amino-N-(3-ethyl-8-methoxy-7-(2-(methylsulfonamido)ethoxy)-4-oxo-3,4-dihydroquinazolin-2-yl) pyrimidine-5-carboxamide], the IC50 in the test with ZR-75-1 (PTEN loss) was 200 to 1000 nM; at PI3Kδ, 200 to 1000 nM; with MCF7 (PIK3CA mut) it was under 20 nM; with SW48 (PIK3CA mut), 20 to 200 nM; with KPL4 (PIK3CA mut) it was 20 to 200 nM; at PI3Kα, under 20 nM. The “Selectivity (PI3Kδ IC50/PI3KαIC50)” value on PI3Kα is listed as “III (“III” represents >10 times)”.
In the case of `Cn1c(NC(=O)c2cnc(N)nc2)nc2c3c(ccc2c1=O)OCCCCCCO3` [14a-6], the IC50 in the test on ZR-75-1 (PTEN loss) was 200 to 1000 nM; on PI3Kδ it was 20 to 200 nM; in the test with MCF7 (PIK3CA mut) it was 20 to 200 nM; with SW48 (PIK3CA mut) it was 200 to 1000 nM; in the test on KPL4 (PIK3CA mut), 200 to 1000 nM; at PI3Kα it was under 20 nM. In addition, the “Selectivity (PI3Kδ IC50/PI3KαIC50)” value on PI3Kα is reported as “II (“II” represents 5-10 times)”.
As to `CCn1c(NC(=O)c2ccc(N)nc2)nc2c(OC)c(OCC(=O)NCCN3CCOCC3)ccc2c1=O` [8b-48, 6-amino-N-(3-ethyl-8-methoxy-7-(2-((2-morpholinoethyl)amino)-2-oxoethoxy)-4-oxo-3,4-dihydroquinazolin-2-yl)nicotinamide], the IC50 is 200 to 1000 nM in the test with ZR-75-1 (PTEN loss); 200 to 1000 nM on PI3Kδ; under 20 nM with MCF7 (PIK3CA mut); 20 to 200 nM in the test on SW48 (PIK3CA mut); 20 to 200 nM in the test on KPL4 (PIK3CA mut); under 20 nM on PI3Kα. For the same compound, the “Selectivity (PI3Kδ IC50/PI3KαIC50)” value on PI3Kα is given as “II (“II” represents 5-10 times)”.
With `Cn1c(NC(=O)c2cnc(N)nc2)nc2c3c(ccc2c1=O)OCCCCO3` [14a-4], the IC50 in the test with ZR-75-1 (PTEN loss) is 200 to 1000 nM; at PI3Kδ it was under 20 nM; in the test on MCF7 (PIK3CA mut), 20 to 200 nM; with SW48 (PIK3CA mut) it was 200 to 1000 nM; with KPL4 (PIK3CA mut), 200 to 1000 nM; on PI3Kα, under 20 nM. The “Selectivity (PI3Kδ IC50/PI3KαIC50)” value on PI3Kα is reported as “I (“I” represents <5 times)”.
`CCn1c(NC(=O)c2cnc(N)nc2)nc2c3c(ccc2c1=O)OCCCCO3` [14b-4]: the IC50 with ZR-75-1 (PTEN loss) is 200 to 1000 nM; on PI3Kδ, 20 to 200 nM; with MCF7 (PIK3CA mut) it was under 20 nM; with SW48 (PIK3CA mut), 200 to 1000 nM; in the test on KPL4 (PIK3CA mut) it was 20 to 200 nM; on PI3Kα, 20 to 200 nM. The “Selectivity (PI3Kδ IC50/PI3KαIC50)” value at PI3Kα was “I (“I” represents <5 times)”.
In the case of `CCn1c(NC(=O)c2ccc(N)nc2)nc2c(OC)c(OC[C@@H](O)CN3CCOCC3)ccc2c1=O` [8b-46, (S)-6-amino-N-(3-ethyl-7-(2-hydroxy-3-morpholinopropoxy)-8-methoxy-4-oxo-3,4-dihydroquinazolin-2-yl) nicotinamide], the IC50 with ZR-75-1 (PTEN loss) is 200 to 1000 nM; on PI3Kδ, 200 to 1000 nM; in the test on MCF7 (PIK3CA mut) it was under 20 nM; with SW48 (PIK3CA mut), 20 to 200 nM; in the test on KPL4 (PIK3CA mut), 20 to 200 nM; at PI3Kα, under 20 nM. Further, the “Selectivity (PI3Kδ IC50/PI3KαIC50)” value at PI3Kα is recorded as “II (“II” represents 5-10 times)”.
`CCn1c(NC(=O)c2ccc(N)nc2)nc2c(OC)c(OC[C@H](O)CN3CCOCC3)ccc2c1=O` [8b-47, (R)-6-amino-N-(3-ethyl-7-(2-hydroxy-3-morpholinopropoxy)-8-methoxy-4-oxo-3,4-dihydroquinazolin-2-yl) nicotinamide]: the IC50 with ZR-75-1 (PTEN loss) was 200 to 1000 nM; on PI3Kδ, 200 to 1000 nM; with MCF7 (PIK3CA mut), under 20 nM; in the test on SW48 (PIK3CA mut) it was 20 to 200 nM; with KPL4 (PIK3CA mut), 20 to 200 nM; at PI3Kα, under 20 nM. Besides, the “Selectivity (PI3Kδ IC50/PI3KαIC50)” value at PI3Kα is reported as “II (“II” represents 5-10 times)”.
On to `CCn1c(NC(=O)c2cnc(N)nc2)nc2c(OC)c(OC[C@@H](O)CN3CCOCC3)ccc2c1=O` [8b-27, (S)-2-amino-N-(3-ethyl-7-(2-hydroxy-3-morpholinopropoxy)-8-methoxy-4-oxo-3,4-dihydroquinazolin-2-yl) pyrimidine-5-carboxamide], for which the IC50 was 200 to 1000 nM in the test with ZR-75-1 (PTEN loss); 200 to 1000 nM on PI3Kδ; under 20 nM in the test on MCF7 (PIK3CA mut); 20 to 200 nM in the test on SW48 (PIK3CA mut); 20 to 200 nM with KPL4 (PIK3CA mut); under 20 nM on PI3Kα. In addition, at PI3Kα, the “Selectivity (PI3Kδ IC50/PI3KαIC50)” value is on record as “II (“II” represents 5-10 times)”.

The values are drawn from patent US12404269B2, “Aminoquinazolinone and aminoisoquinolinone derivatives and application thereof” (ZHEJIANG UNIVERSITY, priority 2018, dated 2025).
